Here are results for three compounds from US20190048365A1, “MITOCHONDRIAL MICROINJECTION OF OOCYTES” (Eastern Virginia Medical School, priority 2015, published 2019).

For one test, the system named is purified human platelets. Nature of the test: Fluo-4 staining of purified platelets (platelet activation). The format is cell-based. Conditions: Fluo-4, with 2 mM calcium chloride. An excerpt:
FIGS. 6A and 6B provide further evidence of the functionality of the purified human platelets. […] Dull green fluorescence indicates functional but inactivated platelets. To activate platelets so they can begin to aggregate to initiate the blood clotting process, calcium ions should be at a significant concentration within the platelet cytoplasm.

Test [1] concerns inner mitochondrial membrane potential of human platelets. Conditions: JC-1 2 μM, purified human platelets.
Method: In FIG. 5A, platelets are stained with mitochondrial inner membrane sensitive dye JC-1(2 μM) (630× magnification). […] The red stained mitochondria reflect mitochondria with a Wm capable of supporting ATP production. […] FCCP is an uncoupler, a chemical that destroys the inner mitochondrial membrane potential Wm.
The subject of test [2] is isolated human platelet mitochondria. Nature of the test: ATP levels in isolated mitochondria incubated with supplement (chemiluminescence assay). It counts as biochemical. The settings on record: 2.0 micromolar (maximum increase). The protocol: Experiment: Aliquots of isolated human platelet mitochondria were incubated for different amounts of time in the presence of differing concentrations of L-carnitine, a compound known to stimulate the uptake and metabolism of fat molecules for use by the mitochondria to produce ATP. Along the X-axis of this graph, the numbers 1, 2, 3, and 4 refer to 0, 0.2 micromolar, 2.0 micromolar, and 20 micromolar concentrations of L-carnitine in the mitochondrial incubation buffer. The mitochondrial aliquots in hatched columns (Series 1) were incubated for 20 minutes in the presence of the L-carnitine while the mitochondrial aliquots in non-hatched columns (Series 2) were incubated for 60 minutes in the presence of L-carnitine. After these incubation times, the samples were processed to measure ATP by a very sensitive chemiluminescence assay.

Consider `CNc1ccc2oc(C[C@H]3O[C@@]4(CC[C@H]3C)O[C@H]([C@H](C)C(=O)c3ccc[nH]3)[C@H](C)C[C@H]4C)nc2c1C(=O)O` [A23187], for which, in the test with purified human platelets, the “effect on Fluo-4 green fluorescence (platelet activation)” value was “much more intense green fluorescence”.
Regarding `N#CC(C#N)=NNc1ccc(OC(F)(F)F)cc1` [FCCP, Carbonyl cyanide-4-(trifluoromethoxy)phenylhydrazone], the “effect on JC-1 red fluorescence (functional mitochondria)” value in test [1] is recorded as “elimination of the red fluorescence”.
Take `C[N+](C)(C)C[C@H](O)CC(=O)[O-]` [L-carnitine]: the “increase in ATP levels” value is reported as 47% in test [2] (20 minute incubation (Series 1)) and 80% in test [2] (60 minute incubation (Series 2)).
